Data: US20050051179A1, “Simple apparatus for preparing experimental models of brain neuronal damage and preparation of secondary brain damage model with methods for evaluation of drug efficacy of novel compounds against brain damage and memory-related events” (priority 2003, published 2005)

Tests used:
[1] = test system: SBD generated with the drop weight apparatus; experiment: MRI findings and cerebral blood flow (CBF) velocity after drop-weight impact (240 cm·g); assay type: in vivo, dog; conditions: dogs
Text: (§1) Eight healthy 4-year-old male Beagle dogs were anesthetized before a square piece of skull (1.2×1.2 cm^2) was craniectomized. As two different cerebral injuries were involved in the study, a unilateral parietal bone was drilled and the brain surface surgically exposed without removing the dura mater. In two randomized dogs, a self-designed 5-mm spherical DCN with reproducibility was applied to generate concussion (CC in Table 1). In the remaining four dogs, the WD method was employed under the following experimental conditions: a weight of 12-g mass with a drop-distance of 20 cm to generate an impact of 240 cm·g.
(§2) MRI findings were performed with superconductor magnetism of magnetic field intensity 0.5T (Flexart MRT-50GP; Toshiba Medical Co., Ltd.). CBF velocities of DCN (n=2) and drop-weight-inflicted (n=4) dogs (including craniectomized skull-replaced dogs) were measured via MRI using the 3D-phase shift magnetic resonance angiography with presaturation pulse (PAMRA: TE=25, TR=10). Craniectomized skull-chips were replaced and kept in position with adhesive.

[2] = test system: direct contusion nest (DCN) injury; experiment: MRI findings and cerebral blood flow (CBF) velocity after direct contusion nest (DCN); assay type: in vivo, dog
Text: as §1, §2

[3] = test system: pyramidal cells of hippocampal CA3 field; experiment: Viable pyramidal cell counts per unit area, hippocampal CA3 field, after drop-weight impact; assay type: in vivo, rat; conditions: rats, 3 mg/kg i.p. before impact
Protocol: (§3) Male Fisher rats weighing 400-450 g were anesthetized with sodium pentobarbital (Nembutal; Dainippon Pharmaceutical Co., Ltd., Osaka) by i.p. administration (40 mg/kg) before the head was restrained in a stereotaxic apparatus. Weight 20 of 5-gram mass positioned at a drop-distance of 10 cm was dropped onto the brain surface under gravitational force to generate an impact of 50 cm·g, causing a head injury. Follow-up studies of the progress of subsequent events from 1 to 48 hours post-impact were monitored with the MRI approach.
Immediately after impact, MRI diagnoses were conducted to categorize animals as (i) no injuries, (ii) no subarachinoid hemorrhage and (iii) external wounds and hemorrhages inflicted on brain surface, etc. Animals having such criteria were omitted from subsequent studies. […]
Along with MRI findings from 1 to 48 hours post-impact, brain injuries were also evaluated histopathologically using the cardioperfusion method with 200 mL of physiological saline (0.9 w/w %) to first remove blood cells followed by fixation with 50 mL of 0.1 MPBS (pH: 7.4) containing 4% paraformaldehyde (PFA). […]
With regard to the therapeutic effects of chemical agents tested, viable pyramidal cell counts per unit area (1 mm^2) of tissues in hippocampal CA1 and CA3 fields were determined to derive the area of tissue damage/injury using image-analysis software (NIH Co., Ltd.; Image Ver. 1.55). […]

[4] = test system: SBD derived from experimental head injury; experiment: MRI diagnosis of cerebral injuries after drop-weight impact (SBD model); assay type: in vivo, rat; conditions: rats, 3 mg/kg i.p. before impact of 50 cm·g; 1 hr post-impact
Protocol: as §3
(§4) Immediately after impact, MRI diagnoses were conducted to categorize animals as (i) no injuries, (ii) no subarachinoid hemorrhage and (iii) external wounds and hemorrhages inflicted on brain surface, etc. Animals having such criteria were omitted from subsequent studies. Animals with confirmed cerebral injuries but without these criteria were divided into groups of six each.

[5] = test system: pyramidal cells of hippocampal CA1 field; experiment: Viable pyramidal cell counts per unit area, hippocampal CA1 field, after drop-weight impact; assay type: in vivo, rat; conditions: rats, 3 mg/kg i.p. before impact
Protocol: as §3, §4
Along with MRI findings from 1 to 48 hours post-impact, brain injuries were also evaluated histopathologically using the cardioperfusion method with 200 mL of physiological saline (0.9 w/w %) to first remove blood cells followed by fixation with 50 mL of 0.1 MPBS (pH: 7.4) containing 4% paraformaldehyde (PFA). Brain tissues were then embedded in paraffin and coronal sections of the brain specimens were sectioned before staining with the hematoxylin-eosin (H&E) reagent.
With regard to the therapeutic effects of chemical agents tested, viable pyramidal cell counts per unit area (1 mm^2) of tissues in hippocampal CA1 and CA3 fields were determined to derive the area of tissue damage/injury using image-analysis software (NIH Co., Ltd.; Image Ver. 1.55). As for the extent of tissue damage, slices with the maximum damage area between two groups were compared.

## C[C@]12N[C@H](Cc3ccccc31)c1ccccc12 [MK-801]
[1]; drop weight group with drug pretreatment, 240 cm·g
  time-related expansion of damage after impact (MRI): not established
[1]; drop-weight-inflicted, drug-pretreated group
  SBD development (CBF peak at 3 hr after impact): effectively suppressed SBD development
[2]; dogs subjected to DCN, drug-treated group (same as non-treated)
  CBF after the high values registered immediately after impact: no subsequent changes thereafter
[2]; dogs, DCN group with drug pretreatment
  damage field with time (MRI): damage area had expanded
[3]; 1 hr post-impact, non-treated 45.9%
  viable pyramidal cell counts per unit area, CA3 field, decrease (rate): 63.0%
[3]; 48 hr post-impact, non-treated 37.6%
  viable pyramidal cell counts per unit area, CA3 field, decrease (rate): 61.2%
[4]
  T2-weighted high-signal and T1-weighted low-signal areas (MRI): expanded
[5]
  suppression of SBD exacerbation (viable cell counts 48 hr vs 1 hr post-impact): could not completely suppress SBD exacerbation
[5]; 1 hr post-impact, non-treated 59.2%
  viable pyramidal cell counts per unit area, CA1 field, decrease compared with the control group: 66.4%
[5]; 48 hr post-impact, non-treated 44.5%
  viable pyramidal cell counts per unit area, CA1 field, decrease compared with the control group: 54.8%
